Measured values: paper PMC4621507, “Characterization of 2,4-Diamino-6-oxo-1,6-dihydropyrimidin-5-yl Ureido Based Inhibitors of Trypanosoma brucei FolD and Testing for Antiparasitic Activity” (Journal of Medicinal Chemistry, 2015)
Where “and” joins values, the source holds several entries; their conditions need not be identical. Equal values may be shown once.

Legend:
TbFolD = test: FolD dehydrogenase enzyme inhibition assay; assay type: biochemical, Trypanosoma brucei; details: for FolD inhibition IC50 / FolD inhibition Ki: recombinant TbFolD, dehydrogenase activity; for FolD inhibition IC50: 35 μM mTHF, 1 mM NADP+, 27 °C, pH 7.3; for FolD inhibition Ki: data fitted to a competitive model; for increase of the inhibitory potency compared to that of compound 2: TbFolD, from Ki
Protocol: The dehydrogenase activity of FolD was measured spectrophotometrically, using a Beckman DU-640 spectrophotometer, following the formation of 5,10-CH=THF from 5,10-CH2-THF. 5,10-CH2-THF dehydrogenase assays were carried out in a 0.5 mL volume at 27 °C and contained 25 mM MOPS, pH 7.3, 30 mM 2-mercaptoethanol, 35 μM mTHF, and 1 mM NADP^+. The Km values of substrate and cofactor having been previously elucidated as approximately 35 and 70 μM. The reaction was initiated by the addition of NADP^+ and incubated for 5 min then stopped by the addition of an equal volume of 1 M HCl and the 5,10-CH=THF produced quantified at 350 nm, using an extinction coefficient of 24.9 mM^–1 cm^–1. The enzyme activity was expressed as μ moles 5,10-CH=THF produced per minute. Enzyme inhibition was measured using the dehydrogenase assay, with stocks of compounds dissolved in DMSO (10 mM). The concentration of compound in the first test was 0–50–100 μM. Data from inhibition assays were fitted to a competitive model by linear regression using Origin (OriginLab Corporation). […]
with 50 mM bicine, 250 mM NaCl, 0.5 mM DTT, 10 % glycerol pH 8.0. The typical yield of protein was approximately 7 mg/L of cell culture. The addition of 10% glycerol in all buffers was required to prevent loss of activity when the samples were flashyfrozen.
The dehydrogenase activity of FolD was measured spectrophotometrically, using a Beckman DUy 640 spectrophotometer, following either the formation of 5,10yCH=THF from 5,10yCH2yTHF (DH activity). 5,10yCH2yTHF dehydrogenase assays were carried out in a 0.5 mL volume at 27 °C and contained 25 mM MOPS, pH 7.3, 30 mM 2ymercaptoethanol 35 µM mTHF, 1 mM NADP+. The reaction was initiated by addition of NADP+ and incubated for 5 minutes then stopped by the addition of an equal volume of 1 M HCl and the 5,10yCH=THF produced quantified at 350 nm, using a extinction coefficient of 24.9 mM−1 cm−1. DH activity was expressed as µ moles 5,10y CH=THF produced per minute. Enzyme inhibition was measured using the dehydrogenase assay, with stocks of compounds dissolved in DMSO (10 mM). The concentration of compound in the first test was 0y50y100 µM. Data from inhibition assays were fitted to competitive model by linear […]
The bloodstreamyform T. brucei brucei strain 427 was grown in HMIy9 medium – 17.66 mg/mL IMDM (Gibco), 3.020 mg/mL sodium bicarbonate (SigmayAldrich), 0.136 mg/mL hypoxanthine (SigmayAldrich), 0.039 mg/mL thymidine (SigmayAldrich) and 0.028 mg/mL bathocuproine sulfonic acid (SigmayAldrich) y supplemented with 10% heatyinactivated fetal bovine serum (FBS) (BioWhittaker), 1.5 mM Lycysteine hydrochloride monohydrate (Merck), 0.2 mM βy mercaptoethanol (SigmayAldrich), 100 U/mL penicillin and 100 U/mL streptomycin (BioWhittaker) at 37 °C under a humidified 5% CO2 atmosphere. Cultures were grown in T25 or T75 vented cap culture flasks (Sarstedt) and subycultured every 2y3 days by 100 to 1000yfold dilution, respectively.
Parasites were counted directly using a Neubauer chamber (Marienfeld) and diluted appropriately in […]
In vitro growth inhibition assays

human FolD = target: human FolD; set-up: method as in PMID 22108435, PMID 23050773; details: competitive inhibitor; cited from earlier work
[1] = target: Pseudomonas aeruginosa FolD; set-up: method as in PMID 22108435, PMID 23050773; details: competitive inhibitor; cited from earlier work
L. major FolD = target: L. major FolD; set-up: method as in PMID 22108435, PMID 23050773; details: competitive inhibitor; cited from earlier work
[2] = target: Trypanosoma brucei N5,N10-methylenetetrahydrofolate dehydrogenase/cyclohydrolase (FolD) (Trypanosoma brucei (Lister 927 strain)); test: SEC; size exclusion chromatography (gel filtration) of recombinant TbFolD in solution; conditions not given in the main text
[3] = test system: THP1 differentiated macrophages; test: Cytotoxicity, colorimetric MTT assay; assay type: cell-based; details: human THP1 differentiated macrophages, 72 h, read-out: THP1 in vitro growth inhibition IC50
Protocol: The cytotoxicity of the compounds under study was assessed by a colorimetric MTT assay.[26],[27] THP1 differentiated macrophages were seeded at a density of 10^5 cells/well in 96-well plates and allowed to adhere overnight. Cells were incubated with the compound concentration range for 72 h at 37 °C. At the end of the incubation period, 200 μL of 0.5 mg/mL MTT reagent (thiazolyl blue tetrazolium bromide, Sigma) solution was added to each well. The plates were further incubated for 4 h at 37 °C in the dark. The culture medium was subsequently discarded, and 200 μL of isopropanol was added to dissolve the dark-blue formazan crystals. Cell viability was quantified spectrophotometrically by measuring the absorbance of the formazan product at wavelength 570 nm and the background at 660 nm with a microplate reader (Synergy 2, Biotek, USA). The data are expressed as the percentages of viable cells compared to the survival of a control group (untreated cells). […]
additional 4 h and then the fluorescence read in a microplate reader (Sinergy 2, BioTek) using an […]
calculated by linear regression.
The cytotoxicity of the compounds under study was assessed by a colorimetric MTT assay. […]
added to dissolve the darkyblue formazan crystals. Cell viability was quantified
spectrophotometrically by measuring the absorbance of the formazan product at the wavelength of […]

[4] = Solubility in organic solvents (crystallization trials); assay type: physicochemical; details: room temperature, with the exception of DMSO
Text: We therefore tried to grow crystals from DMSO (in different conditions) and from mixtures of DMSO/CH3CN. Eventually, crystallization by slow evaporation (16 days) of a solution of 3 in reagent-grade DMSO (Sigma-Aldrich) at room temperature produced small plates suitable for the determination of the molecular connectivity. After testing several samples, a specimen (0.25 × 0.20 × 0.05 mm^3) grown at the liquor/air interface was selected for the crystallographic analysis. The specimen manifested a significant pleochroism (colorless to violet) under polarized light. It was mounted on the top of a glass capillary fiber in dense perfluorinated oil. The X-ray data collection was performed at room temperature on a 3-circle Bruker SMART APEX goniometer equipped with a CCD APEX-II detector, using graphite-monochromated Mo Kα radiation (λ = 0.71073 Å). A total of 26180 reflections (8144 unique) were recorded up to (sin ϑ/λ)MAX = 0.5017 Å^–1. A high exposure time (120 s/frame) was employed due to the small dimensions of the sample and its very low scattering power.

Question: What does the source list for `Nc1nc2c(c(=O)[nH]1)N1C(=O)N(c3ccc(C(=O)NC(CCC(=O)O)C(=O)O)cc3)CC1CN2` (stereo not shown) [Compound 21, reference compound]?
Answer: FolD inhibition IC50 (TbFolD): 20000 ± 1200 nM; FolD inhibition Ki (TbFolD): 8500 nM and 8500 ± 500 nM; Ki human FolD (human FolD): 29 nM; Ki Pseudomonas aeruginosa FolD [1]: 30 nM; Ki L. major FolD (L. major FolD): 105 nM

Question: With `Nc1nc(N)c(NC(=O)Nc2ccc(C(=O)NCCCC(=O)O)cc2)c(=O)[nH]1` [Compound 20, 4-(4-(3-(2,4-Diamino-6-hydroxypyrimidin-5-yl)ureido)benzamido)butanoic Acid] as the compound, how does the “FolD inhibition IC50” value (TbFolD) read?
Answer: The value was 213000 ± 18000 nM.

Question: And the “FolD inhibition Ki” value (TbFolD)?
Answer: Its value is 168000 ± 8500 nM.

Question: With `Nc1nc(N)c(NC(=O)Nc2ccc(C(=O)N[C@@H](Cc3ccc(O)cc3)C(=O)O)cc2)c(=O)[nH]1` [Compound 19, (S)-2-(4-(3-(2,4-Diamino-6-hydroxypyrimidin-5-yl)ureido)benzamido)-3-(4-hydroxyphenyl)propanoic Acid] as the compound, how does the “FolD inhibition IC50” value (TbFolD) read?
Answer: The value was 9300 ± 900 nM.

Question: And the “FolD inhibition Ki” value (TbFolD)?
Answer: The value was 7300 ± 700 nM.

Question: For “Trypanosoma brucei N5,N10-methylenetetrahydrofolate dehydrogenase/cyclohydrolase (FolD) (enzyme)”, which stoichiometry N [2] is on record?
Answer: The stoichiometry N was 2.

Question: For “(S)-2-(4-(3-(2,4-diamino-6-hydroxypyrimidin-5-yl)ureido)benzamido)hexanedioic Acid [Compound 16]”, which “increase of the inhibitory potency compared to that of compound 2” value (TbFolD) is on record?
Answer: The value was 2 fold.

Question: What about the “FolD inhibition IC50” value (TbFolD) of the same compound?
Answer: Its value is 1000 ± 300 nM.

Question: What about the “FolD inhibition Ki” value (TbFolD) of the same compound?
Answer: The value was 480 nM and 480 ± 700 nM.

Question: What about the IC50 [3] of the same compound?
Answer: Its IC50 is 90000 ± 16000 nM.

Question: With `CCOC(=O)c1ccc(NC(=O)Nc2c(N)nc(N)[nH]c2=O)cc1` [Compound 3, Ethyl 4-(3-(2,4-diamino-6-oxo-1,6-dihydropyrimidin-5-yl)ureido)benzoate] as the compound, how does the “solubility in most organic solvents” value [4] read?
Answer: Its value is “poorly soluble”.

Question: What does the source list for `Nc1nc(N)c(NC(=O)Nc2ccc(C(=O)N[C@@H](CCC(=O)O)C(=O)O)cc2)c(=O)[nH]1` [Compound 2, (S)-2-(4-(3-(2,4-Diamino-6-oxo-1,6-dihydropyrimidin-5-yl)ureido)benzamido)pentanedioic Acid]?
Answer: FolD inhibition IC50 (TbFolD): 2200 nM and 2200 ± 500 nM; FolD inhibition Ki (TbFolD): 1100 nM and 1100 ± 800 nM

Question: Which “increase of the inhibitory potency compared to that of compound 2” value (TbFolD) does the source give for `Nc1nc(N)c(NC(=O)Nc2ccc(C(=O)N[C@@H](Cc3ccccc3)C(=O)O)cc2)c(=O)[nH]1` [Compound 18, (S)-2-(4-(3-(2,4-Diamino-6-hydroxypyrimidin-5-yl)ureido)benzamido)-3-phenylpropanoic Acid] here?
Answer: The value was 2 fold.

Question: And the “FolD inhibition IC50” value (TbFolD)?
Answer: The value was 1100 ± 250 nM.

Question: And the “FolD inhibition Ki” value (TbFolD)?
Answer: Its value is 540 nM and 540 ± 80 nM.

Question: For `C[C@H](NC(=O)c1ccc(NC(=O)Nc2c(N)nc(N)[nH]c2=O)cc1)C(=O)O` [Compound 17, (S)-2-(4-(3-(2,4-Diamino-6-hydroxypyrimidin-5-yl)ureido)benzamido)propanoic Acid], which “FolD inhibition IC50” value (TbFolD) is on record?
Answer: The value was 6300 ± 800 nM.

Question: What about the “FolD inhibition Ki” value (TbFolD) of the same compound?
Answer: Its value is 3200 ± 300 nM.
